Source: a melting point compilation (Tetko et al.; mined from patent text by program, amines drawn as free bases though some values may be those of a salt)

| melting point [°C] | Compound |
| --- | --- |
| 164 to 166 | COC(=O)N(CC(=O)O)C(=O)c1c(Br)ccc2c(C(F)(F)F)c(OC)ccc12 |
| 149 to 150 | CC1=NN(c2cc(-c3ccnc(Nc4cccc(Cl)c4)n3)ccn2)C(=O)C1 |
| 221 to 223 | CCc1cn2c(=O)c(C(=O)O)cnc2c2ccccc12 |
| 79 to 80 | Cc1ccc(S(=O)(=O)N2CCC(Sc3ccc(Cl)c(Cl)c3)CC2)cc1 |
| 224 to 226 | CC(=O)Nc1cc(I)ccc1Sc1ccc([N+](=O)[O-])cc1[N+](=O)[O-] |
| 198 to 200 | COC(=O)C1(C)CCN(c2cccc(-c3cnc4[nH]cc(C(=O)C(C)(C)C)c4n3)c2)C1 (stereo not given) |
| 157 to 159 | Nc1cc(C(c2cc(F)ccc2F)S(=O)(=O)c2ccc(F)cc2)c(Cl)cn1 (stereo not given) |
| 112 to 113 | O=C(CCc1cnoc1-c1ccccc1)Nc1ccc2ccccc2n1 |
| 218 to 219 | CONS(=O)(=O)c1ccccc1S(=O)(=O)NC(=O)Nc1nc(C)cc(C)n1 |
| 191 | O=[N+]([O-])c1cnccc1NCCN1CCC(Nc2nc3ccccc3n2Cc2ccc(CO)o2)CC1 |
| 157 to 158 | c1ccc(CN2CCN(c3nc4cccc5c4n3CCC5)CC2)cc1 |
| 113 to 114 | Cc1ccc(F)cc1C1CC(=O)c2c(C)ccnc2C1 (stereo not given) |
| 155 | CS(=O)c1ccc(-c2nn(Cc3cccnc3)c(=O)cc2-c2ccc(Cl)cc2)cc1 (stereo not given) |
| 233 to 234 | CC(C)n1c(-c2ccc(F)cc2)c(/C=C/C(=O)O)c2ccccc2c1=O |
| 208 to 209 | O=[N+]([O-])c1cccc(Nc2nccc(Sc3cccc(Br)c3)n2)c1 |
| 243 to 244 | OCc1nccn1C(c1ccccc1)(c1ccccc1)c1ccccc1 |
| 161 to 162 | NC(=O)c1cccc(OCc2ccc(F)cc2)c1 |
| 143 to 146 | COc1ccc(-c2cn[nH]c2N)cc1OC |
| 131 to 133 | NC(=O)c1ccc(F)c(Br)c1 |
| 277 to 280 | CCc1cc2c(Nc3nnc(C)s3)ncnc2s1 |
| 194 to 195 | COc1cc(NC(=O)Nc2ccccc2C)cc(OC)c1-c1ccc(C[C@H](NC(=O)c2c(Cl)cccc2Cl)C(=O)O)cc1 |

| melting point [°C] | Compound |
| --- | --- |
| 97 to 99 | CN1CCc2c(cc3ccccc3c2N)C1 |
| 68 to 69 | COc1cc2ccc(C)cc2c(C)c1OC |
| 136 to 137 | CC1=C(C(=O)c2ccc(Cl)cc2)C(=O)C2C=CC=CC2C1=O (stereo not given) |
| 99 to 101 | CCC(C)(O)CNc1c(N)c(Cl)nc2ccccc12 (stereo not given) |
| 98 to 103 | COc1cccc2c1OC(COS(=O)(=O)c1ccc(C)cc1)C2 (stereo not given) |
| 150 to 151 | CNc1nnc(-c2ccccc2)c(=O)n1NC |
| 175 to 177 | C[C@H](CNc1nc(Cl)nc2c1ncn2[C@@H]1O[C@H](CO)[C@@H](O)[C@H]1O)Oc1ccccc1 |
| 256 to 258 | O=C1Nc2ccccc2C1c1cc(Cl)ccc1O (stereo not given) |
| 127 | OCC1(c2ccccc2)CCN(Cc2ccccc2)CC1 |
| 107 to 108 | NS(=O)(=O)c1cccc(C=NO)c1 |
| 179 to 180 | CC(=O)Oc1ccc(-c2c3ccccc3cc3sc4ccccc4c23)cc1OC(C)=O |
| 208 to 210 | Cc1cc(=O)[nH]c2cc(OCCCN3CCN(C(c4ccccc4)c4ccccc4)CC3)ccc12 |
| 206 to 208 | O=C1c2ccccc2C(O)(c2ccc(Cl)cc2)N1CCc1ccc([N+](=O)[O-])cc1 (stereo not given) |
| 158 | CC(C)CN=C1C(c2ccccc2)=C(c2ccccc2)C(c2ccccc2)=C1c1ccccc1 |
| 222 to 223 | O=C(Nc1cccc2ccccc12)NC(Cc1ccc(C(F)(F)F)cc1)C(O)c1ccc(F)cc1 (stereo not given) |
| 235 | c1ccc(Cc2ncc(-c3cnc(-c4ccccc4)nc3)[nH]2)cc1 |
| 230 | O=C(O)c1ccccc1S(=O)(=O)Cc1c(O[C@H](Cn2ccnc2)c2ccccc2)ccc2c1CCCC2=O |
| 101 to 103 | CCc1nc2c(Cl)ncnc2n1Cc1ccc(OC)cc1 |
| 127 to 129 | O=C(O)c1cc(Cl)cc(OCc2ccccc2)c1 |
| 126 to 132 | O=C1c2ccccc2C(=O)N1CCCC1c2ccccc2C=Cc2ccccc21 |
| 52 to 53 | Cn1nc(-c2ccccc2)cc1-c1ccccc1 |

| melting point [°C] | Compound |
| --- | --- |
| 118 to 120 | O=Cc1c2cccc(Cl)c2c(Cl)c2c(Cl)cccc12 |
| 238 | CNC(=O)c1cccc(C2C(C(=O)c3ccc(OC)cc3)=C(O)C(=O)N2c2nnc(C)s2)c1 (stereo not given) |
| 155 to 156 | Cn1cnc(=O)c(-c2cccc(C(F)(F)F)c2)c1 |
| 94 to 96 | CC(C)CC1(SCCCN=[N+]=[N-])c2c([nH]c(=O)n(C)c2=O)SC1Cc1cccc2ccccc12 (stereo not given) |
| 169 to 171 | COc1ccc(-c2cc(C(=O)O)c(=O)n(CC3CC3)n2)cc1F |
| 204 to 206 | O=c1[nH]c2cscc2c(=O)n1CCN1CCC(=C(c2ccc(F)cc2)c2ccc(F)cc2)CC1 |
| 272 | CS(=O)(=O)c1cnc(-c2nn(Cc3ccccc3F)c3ncccc23)nc1N |
| 195 to 197 | COc1cc2c(cc1OC)C1Cc3ccccc3CC(=O)N1CC2 (stereo not given) |
| 125 to 126 | COc1cc(NC(=O)OC(C)(C)C)ccc1OCCCN1CCN(c2ccccc2)CC1 |
| 148 to 150 | CN1C(=O)N(CC(CS(=O)(=O)c2ccc(-c3ccc(Cl)cc3)cc2)C(=O)O)C(=O)C1(C)C (stereo not given) |
| 157 to 158 | O=C1NCCN(c2ccc(Cc3ccc(Cl)cc3)c(Cl)c2)N1 |
| 235 to 238 | CC(C(O)c1ccccc1)n1nnc2cc3c(cc2c1=O)OC1CCCN1C3=O (stereo not given) |
| 231 to 232 | CCOC(=O)C(=O)Nc1ccccc1C(=O)Nc1nnn[nH]1 |
| 245 to 256 | COc1cc2c(cc1Br)CC(=O)NN=C2c1ccc([N+](=O)[O-])cc1 |
| 215 to 216 | Cc1cccc(N2C(=O)C(=NO)c3ccccc32)c1C |
| 287 to 289 | Cc1c(O)ccc2c(O)c(C(=O)Nc3cccc(F)c3)c(=O)oc12 |
| 206 to 208 | N#Cc1cccc(C(=O)Nc2ccc(-n3nc(C(F)(F)F)cc3C(F)(F)F)nc2)c1 |
| 142 to 143 | CNc1cc(S(=O)(=O)c2ccccc2)ccn1 |
| 129 to 130 | O=S1N=C(NCCCN(Cc2cccs2)c2ccccn2)C(NCc2ccncc2)=N1 (stereo not given) |
| > 250 | CNC(=O)Cn1c(-c2ccc(Cl)cc2)nc2ccc(Cl)nc21 |

The remaining lines, values behind:

| Compound | melting point [°C] |
| --- | --- |
| C#CCNC(=O)C(C#N)C(=O)C1CC1 (stereo not given) | 128 to 129 |
| NC(=NO)c1c(F)cccc1Cl | 115 to 120 |
| COC(=O)c1[nH]c2c(Cl)ccc(Cl)c2c1C | 110 to 111 |
| C#CCn1ccn(C)c1=O | 69 to 72 |
| CC(C)(CO)NCC(O)Cn1ccnc1[N+](=O)[O-] (stereo not given) | 114 to 116 |
| COC(=O)c1ccc(-c2nc(-c3ccc4c(c3)C(C)(C)CCC4(C)C)cs2)cc1 | 138 to 140 |
| COc1ccc(-c2cncc(OC3SCC(O)C(O)C3O)c2)cc1OC (stereo not given) | 211 |
| COC(=O)C(C(=O)O)=C1SC=CS1 | 48 to 51 |
| Cc1ccc(C(=O)Nc2ccc(N3CCNCC3)cc2)c(-c2ccc(C(C)C)cc2)c1 | 131 to 133 |
| CCCCc1ccc(NC(=O)CCC)c(N=C(NC(=O)OC)SC)c1 | 116 |
| CC(C)(C)c1cc(SCCC(=O)N2CCOCC2)cc(C(C)(C)C)c1O | 136 to 138 |
| Nc1nonc1C(=O)NCCCCCC(=O)NO | 150 to 152 |
| CCOC(=O)c1[nH]ccc1OCC | 81 to 83 |
| Cc1nnc(CN2C(=O)c3ccccc3C2=O)n1-c1ccc(Cl)cc1C(=O)c1ccccc1 | 215 to 218 |
| CC1(C)OC(=O)Nc2ccc(-c3cc(Cl)cc(C#N)c3)cc21 | 256 to 257 |
| O=C(O)CCC1CCC(=O)N1 (stereo not given) | 125 to 127 |
| CC(=O)c1ccc2c(c1)oc(=O)n2CCCCl | 100 to 103 |
| CC(C)=CCN1Cc2c(Br)ccc3[nH]c(=O)n(c23)CC1C (single isomer, unassigned; (+)) | 125 |
| O=C(O)CO[C@@H]1CCCC[C@H]1NC(=S)Nc1ccccc1 (relative stereo) | 147 to 149 |
| CN1CC(=O)Nc2ccc([N+](=O)[O-])cc2C1=O | 250 to 252 |
| COC(=O)CCCOc1cc([N+](=O)[O-])c(C(C)NC(=O)C(F)(F)F)cc1OC (stereo not given) | 156 to 157 |
| CCCCCCCCCCCC(=O)c1ccc(/C=C/C(=O)OCC)o1 | 50 to 51 |

| Compound | melting point [°C] |
| --- | --- |
| Cc1cc(C(C)N(O)C(N)=O)ccc1Cl (stereo not given) | 129 to 131 |
| C#CCOC(=O)c1ccc(Br)s1 | 65 to 68 |
| CCN1C(=O)Cc2ccc(OC(=O)CCl)cc21 | 114 to 116 |
| COc1ccc(CCC#N)cc1OC | 45 to 48 |
| CC(=O)OCC(=O)C1C(C)CC2C3CC(F)C4=CC(=O)C=CC4(C)C34OC4CC21C (stereo not given) | 154 to 162 |
| CCCN1CC=C(c2cccc3[nH]ccc23)CC1 | 105 |
| CCOP(=O)(OCC)c1cccc(C)c1I | 56 to 58 |
| Cc1ccc(NC(=O)N(C)N)cc1NC(=O)N(C)N | 164 to 165 |
| CC(C)(C=C(Cl)Cl)C(=O)Nc1ccc(Cl)cc1 | 131 to 134 |
| COC(C)c1ccc(O)cc1 (single isomer, unassigned; (+)) | 114 to 115 |
| CC(C)=CCCN1c2ccccc2CN1[N+](=O)[O-] | 51 to 52 |
| CN1CCC[C@H]1COc1ccc(/C=C/C(=O)O)cc1 | 251 |
| CCCCN1CCC[C@H]1CNC(=O)c1cc(Cl)cc2c1OC(C)(C)CN2C | 110 to 112 |
| CCOc1ccc(C2=NN(C3CCN(C(C)=O)CC3)C(=O)[C@@H]3CC=CC[C@H]23)cc1OCC | 148 to 150 |
| CC(C)(C)C(=O)Nc1ccc2oc3c(c2c1)CCC3 | 188 to 190 |
| COC(=O)c1cc(N2CCC2)c(C(F)(F)F)cc1N | 80 to 86 |
| CC(=O)O[C@H]1CCNC1=O | 85.5 to 87 |
| CCCCc1ccc(S(=O)(=O)Nc2cc(C)on2)s1 | 96.5 to 101 |
| O=C(O)C(O)(CSc1ccccc1)C(F)(F)F (stereo not given) | 83 to 84 |
| c1ccc2c(c1)CCSO2 | 119 to 120 |
| Cc1oc(C=Cc2cccc(C(F)(F)F)c2)nc1CO | 134 to 135 |
